According to patent US8436195B2 (priority 2006, dated 2013):

What was measured:
[1] = test system: cancer cells PC-3 (prostate carcinoma); assay: Mitochondria membranes of PC-3 cancer cells after incubation with preparation; format: cell-based; details: PC-3 cells, diluted to 10^−5 mmol/l, 72 hours at 37° C.
Method: A control group was also formed consisting of the same number of vials with the same components except cancer cells, and instead, fibroblasts were put in the group vials. After thermostatting for 72 hours at 37° C. the contents of the above vials was analyzed.

[2] = water and alcohol; from Mashkovskiy, Medications; cited from earlier work

Row | SMILES | state of mitochondria membranes [1] | solubility [2]
1 | COc1cccc2c1C(=O)c1c(O)c3c(c(O)c1C2=O)C[C@@](O)(C(=O)CO)C[C@@H]3O[C@H]1C[C@H](N)[C@H](O)[C@H](C)O1 [adriamycin] | membrane swelling | –
2 | O=c1[nH]cc(F)c(=O)[nH]1 [fluororacil] | – | poorly soluble in water and alcohol
